# pEC50: −log10 of the molar value.
# Target: T1, hNPRA (Homo sapiens, UniProt P16066)
# T1 construct: expressed in transfected cells
# T1 sequence (P16066 33-1061): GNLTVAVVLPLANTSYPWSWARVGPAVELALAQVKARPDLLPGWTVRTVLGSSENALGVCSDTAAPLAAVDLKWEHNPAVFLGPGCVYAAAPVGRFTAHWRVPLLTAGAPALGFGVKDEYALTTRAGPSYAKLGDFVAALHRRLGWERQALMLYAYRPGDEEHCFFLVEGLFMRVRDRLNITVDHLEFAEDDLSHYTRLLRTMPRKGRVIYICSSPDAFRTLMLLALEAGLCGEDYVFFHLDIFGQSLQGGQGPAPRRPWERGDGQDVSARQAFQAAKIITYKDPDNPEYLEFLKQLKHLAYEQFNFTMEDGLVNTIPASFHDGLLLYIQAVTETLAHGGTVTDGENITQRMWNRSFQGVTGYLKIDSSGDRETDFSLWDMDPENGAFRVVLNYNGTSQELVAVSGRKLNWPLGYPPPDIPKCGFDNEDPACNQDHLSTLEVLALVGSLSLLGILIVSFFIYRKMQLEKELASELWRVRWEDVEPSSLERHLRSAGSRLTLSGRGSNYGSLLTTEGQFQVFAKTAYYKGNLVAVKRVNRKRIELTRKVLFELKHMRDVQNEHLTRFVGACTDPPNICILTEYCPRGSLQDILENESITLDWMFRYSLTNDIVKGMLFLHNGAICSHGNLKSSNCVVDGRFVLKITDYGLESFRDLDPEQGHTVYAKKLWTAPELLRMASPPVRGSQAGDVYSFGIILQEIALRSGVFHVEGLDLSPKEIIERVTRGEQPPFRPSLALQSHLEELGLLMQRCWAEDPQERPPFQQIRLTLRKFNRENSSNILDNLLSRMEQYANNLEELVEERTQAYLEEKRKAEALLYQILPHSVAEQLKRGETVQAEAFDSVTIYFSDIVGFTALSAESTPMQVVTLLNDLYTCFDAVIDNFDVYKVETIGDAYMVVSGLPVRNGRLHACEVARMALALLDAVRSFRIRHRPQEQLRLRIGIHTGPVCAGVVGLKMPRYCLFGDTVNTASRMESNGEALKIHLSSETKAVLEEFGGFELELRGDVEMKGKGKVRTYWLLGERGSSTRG
# Assay: NPRA Functional Cell Assay (cGMP HTRF, NPRA HEK JumpIn stable cells)
# Assay type: cell-based
# Conditions: cGMP production, 1 hour at 37° C., 10-point dose response
# Summary of the method: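 cGMP HTRF read-out after 1 hour compound treatment at 37° C. of human NPRA-expressing HEK JumpIn cells, 1500 cells/well, in buffer with phosphodiesterase inhibitors IBMX and RO20 (100 uM each). Signal converted to [cGMP] by calibration curve; EC50s fitted by 4-parameter logistic; 50 nM h-ANP as positive response.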
row,SMILES,pEC50
1,"CC(C)(C)[C@H]1CCc2nc3sc(C(=O)N[C@H](CCN4CCC(O)CC4)c4cccc(C(=O)N5CC6(CCCNC6)C5)c4)nc3cc2C1 (racemic) [Example 131, rac-(7S)-7-tert-butyl-N-[rac-(1R)-1-[3-(2,8-diazaspiro[3.5]nonane-2-carbonyl)phenyl]-3-(4-hydroxy-1-piperidyl)propyl]-5,6,7,8-tetrahydrothiazolo[5,4-b]quinoline-2-carboxamide]",7.01
2,"CC(C)(C)[C@H]1CCc2nc3sc(C(=O)N[C@H](CCN4CCC(O)CC4)c4cccc(C(=O)N5CC(CN6CCCC6)C5)c4)nc3cc2C1 (racemic) [Example 132, rac-(7S)-7-tert-butyl-N-[rac-(1R)-3-(4-hydroxy-1-piperidyl)-1-[3-[3-(pyrrolidin-1-ylmethyl)azetidine-1-carbonyl]phenyl]propyl]-5,6,7,8-tetrahydrothiazolo[5,4-b]quinoline-2-carboxamide]",6.99
3,"CC(C)(C)[C@H]1CCc2nc3sc(C(=O)N[C@H](CCN4CCC(O)CC4)c4cccc(C(=O)NC5CCNCC5)c4)nc3cc2C1 (racemic) [Example 133, rac-(7S)-7-tert-butyl-N-[rac-(1R)-3-(4-hydroxy-1-piperidyl)-1-[3-(4-piperidylcarbamoyl)phenyl]propyl]-5,6,7,8-tetrahydrothiazolo[5,4-b]quinoline-2-carboxamide]",6.93
4,"CN1CC[C@@H](NC(=O)c2cccc([C@@H](CCN3CCC(O)CC3)NC(=O)c3nc4cc5c(nc4s3)CC[C@H](C(C)(C)C)C5)c2)C1 (racemic) [Example 134, rac-(7S)-7-tert-butyl-N-[rac-(1R)-3-(4-hydroxy-1-piperidyl)-1-[3-[[rac-(3R)-1-methylpyrrolidin-3-yl]carbamoyl]phenyl]propyl]-5,6,7,8-tetrahydrothiazolo[5,4-b]quinoline-2-carboxamide]",6.90
5,"CC(C)(C)[C@H]1CCc2nc3sc(C(=O)N[C@H](CCN4CCC(O)CC4)c4cccc(C(=O)N[C@@H]5CNC[C@H]5O)c4)nc3cc2C1 (racemic) [Example 135, rac-(7S)-7-tert-butyl-N-[rac-(1R)-3-(4-hydroxy-1-piperidyl)-1-[3-[[rac-(3R,4R)-4-hydroxypyrrolidin-3-yl]carbamoyl]phenyl]propyl]-5,6,7,8-tetrahydrothiazolo[5,4-b]quinoline-2-carboxamide]",6.88
6,"CC(C)(C)[C@H]1CCc2nc3sc(C(=O)N[C@H](CCN4CCC(O)CC4)c4cccc(C(=O)NC5CNC5)c4)nc3cc2C1 (racemic) [Example 136, rac-(7S)-7-tert-butyl-N-[rac-(1R)-1-[3-(azetidin-3-ylcarbamoyl)phenyl]-3-(4-hydroxy-1-piperidyl)propyl]-5,6,7,8-tetrahydrothiazolo[5,4-b]quinoline-2-carboxamide]",6.86
7,"CC(C)(C)[C@H]1CCc2nc3sc(C(=O)N[C@H](CCN4CCC(O)CC4)c4cccc(C(=O)N[C@H]5CNC[C@@H]5O)c4)nc3cc2C1 (racemic) [Example 137, rac-(7S)-7-tert-butyl-N-[rac-(1R)-3-(4-hydroxy-1-piperidyl)-1-[3-[[rac-(3S,4S)-4-hydroxypyrrolidin-3-yl]carbamoyl]phenyl]propyl]-5,6,7,8-tetrahydrothiazolo[5,4-b]quinoline-2-carboxamide]",6.75
8,"CN1CC[C@H](NC(=O)c2cccc([C@@H](CCN3CCC(O)CC3)NC(=O)c3nc4cc5c(nc4s3)CC[C@H](C(C)(C)C)C5)c2)C1 (racemic) [Example 138, rac-(7S)-7-tert-butyl-N-[rac-(1R)-3-(4-hydroxy-1-piperidyl)-1-[3-[[rac-(3S)-1-methylpyrrolidin-3-yl]carbamoyl]phenyl]propyl]-5,6,7,8-tetrahydrothiazolo[5,4-b]quinoline-2-carboxamide]",6.68
9,"CC1(C)NCCC1NC(=O)c1cccc([C@@H](CCN2CCC(O)CC2)NC(=O)c2nc3cc4c(nc3s2)CC[C@H](C(C)(C)C)C4)c1 (mixture of isomers) [Example 139, rac-(7S)-7-tert-butyl-N-[rac-(1R)-1-[3-[(2,2-dimethylpyrrolidin-3-yl)carbamoyl]phenyl]-3-(4-hydroxy-1-piperidyl)propyl]-5,6,7,8-tetrahydrothiazolo[5,4-b]quinoline-2-carboxamide]",6.66
10,"CN1CCCC(NC(=O)c2cccc([C@@H](CCN3CCC(O)CC3)NC(=O)c3nc4cc5c(nc4s3)CC[C@H](C(C)(C)C)C5)c2)C1 (mixture of isomers) [Example 140, rac-(7S)-7-tert-butyl-N-[rac-(1R)-3-(4-hydroxy-1-piperidyl)-1-[3-[(1-methyl-3-piperidyl)carbamoyl]phenyl]propyl]-5,6,7,8-tetrahydrothiazolo[5,4-b]quinoline-2-carboxamide]",6.65
11,"CN1CCC(NC(=O)c2cccc([C@@H](CCN3CCC(O)CC3)NC(=O)c3nc4cc5c(nc4s3)CC[C@H](C(C)(C)C)C5)c2)CC1 (racemic) [Example 141, rac-(7S)-7-tert-butyl-N-[rac-(1R)-3-(4-hydroxy-1-piperidy1)-1-[3-[(1-methyl-4-piperidyl)carbamoyl]phenyl]propyl]-5,6,7,8-tetrahydrothiazolo[5,4-b]quinoline-2-carboxamide]",6.59
12,"CN1CCC(CNC(=O)c2cccc([C@@H](CCN3CCC(O)CC3)NC(=O)c3nc4cc5c(nc4s3)CC[C@H](C(C)(C)C)C5)c2)C1 (mixture of isomers) [Example 142, rac-(7S)-7-tert-butyl-N-[rac-(1R)-3-(4-hydroxy-1-piperidyl)-1-[3-[(1-methylpyrrolidin-3-yl)methylcarbamoyl]phenyl]propyl]-5,6,7,8-tetrahydrothiazolo[5,4-b]quinoline-2-carboxamide]",6.59
13,"CC(C)(C)[C@H]1CCc2nc3sc(C(=O)N[C@H](CCN4CCC(O)CC4)c4cccc(C(=O)NC5CCCNC5)c4)nc3cc2C1 (mixture of isomers) [Example 143, rac-(7S)-7-tert-butyl-N-[rac-(1R)-3-(4-hydroxy-1-piperidyl)-1-[3-(3-piperidylcarbamoyl)phenyl]propyl]-5,6,7,8-tetrahydrothiazolo[5,4-b]quinoline-2-carboxamide]",6.56
14,"CN1C(=O)OCC12CN(C(=O)c1cccc([C@@H](CCN3CCC(O)CC3)NC(=O)c3nc4cc5c(nc4s3)CC[C@H](C(C)(C)C)C5)c1)C2 (racemic) [Example 144, rac-(7S)-7-tert-butyl-N-[rac-(1R)-3-(4-hydroxy-1-piperidyl)-1-[3-(5-methyl-6-oxo-7-oxa-2,5-diazaspiro[3.4]octane-2-carbonyl)phenyl]propyl]-5,6,7,8-tetrahydrothiazolo[5,4-b]quinoline-2-carboxamide]",6.34
15,"CC1(O)CN(C(=O)c2cccc([C@@H](CCN3CCC(O)CC3)NC(=O)c3nc4cc5c(nc4s3)CC[C@H](C(C)(C)C)C5)c2)C1 (racemic) [Example 145, rac-(7S)-7-tert-butyl-N-[rac-(1R)-1-[3-(3-hydroxy-3-methyl-azetidine-1-carbonyl)phenyl]-3-(4-hydroxy-1-piperidyl)propyl]-5,6,7,8-tetrahydrothiazolo[5,4-b]quinoline-2-carboxamide]",6.26
16,"CC(C)(C)[C@H]1CCc2nc3sc(C(=O)N[C@H](CCN4CCC(O)CC4)c4cccc(C(=O)N5CCC6NCCC65)c4)nc3cc2C1 (mixture of isomers) [Example 146, rac-(7S)-7-tert-butyl-N-[rac-(1R)-1-[3-(2,3,3a,5,6,6a-hexahydro-1H-pyrrolo[3,2-b]pyrrole-4-carbonyl)phenyl]-3-(4-hydroxy-1-piperidyl)propyl]-5,6,7,8-tetrahydrothiazolo[5,4-b]quinoline-2-carboxamide]",6.22
17,"CC(C)(C)[C@H]1CCc2nc3sc(C(=O)N[C@H](CCN4CCC(O)CC4)c4cccc(C(=O)N5CC(N)C5)c4)nc3cc2C1 (racemic) [Example 147, rac-(7S)-7-tert-butyl-N-[rac-(1R)-1-[3-(3-aminoazetidine-1-carbonyl)phenyl]-3-(4-hydroxy-1-piperidyl)propyl]-5,6,7,8-tetrahydrothiazolo[5,4-b]quinoline-2-carboxamide]",6.19
18,"CN(C)C1CN(C(=O)c2cccc([C@@H](CCN3CCC(O)CC3)NC(=O)c3nc4cc5c(nc4s3)CC[C@H](C(C)(C)C)C5)c2)C1 (racemic) [Example 148, rac-(7S)-7-tert-butyl-N-[rac-(1R)-1-[3-[3-(dimethylamino)azetidine-1-carbonyl]phenyl]-3-(4-hydroxy-1-piperidyl)propyl]-5,6,7,8-tetrahydrothiazolo[5,4-b]quinoline-2-carboxamide]",6.18

# Reference: US12440496B2, “Natriuretic peptide receptor a agonists useful for the treatment of cardiometabolic diseases, kidney disease and diabetes” (Merck Sharp & Dohme LLC, priority 2019, dated 2025)
